Results: patent US11040081B2 (CORPORATION GENACOL CANADA INC., priority 2016, dated 2021)

Assays:
[1] = test system: patients diagnosed with osteoarthritis of the knee; test: Filipino study: WOMAC osteoarthritis index, Likert version; assay type: in vivo, human; settings: Likert 0-4
Protocol: Experimental, randomized, single blind observer, open-labeled, controlled trial. […] Group A subjects were given the oral collagen supplement (Genacol®, Blainville, Qc, Canada) 400 mg/capsule, 3 capsules daily at bedtime for 6 months, and a topical analgesic needed for knee pain. Group B, the control group, received the standard treatment using an oral non-steroidal inflammatory drug, in the form of aceclofenac 100 mg/tablet, 1 tablet twice a day for 5 days initially then as needed for pain, and topical analgesic (ketoprofen gel) to be applied twice a day as needed for pain. Both groups underwent physical therapy three times a week for two weeks. Heating modalities, range of motion exercises, and muscle strengthening exercises were administered on each therapy session. Follow up evaluation was done every month. On the sixth month of follow up, repeat radiography evaluation of the involved knee was done to determine if there were any changes in the knee joint. Compliance to the study medication was determined by asking the patient on their missed doses and by counting the remaining unconsumed capsules. Symptoms of osteoarthritis were assessed using the Western Ontario and McMaster Universities (WOMAC) osteoarthritis index, a validated and disease-specific questionnaire separately addressing severity of joint pain (5 questions), stiffness (2 questions), and limitation of physical function (17 questions) in the 48 hours before assessment. The Likert Version of WOMAC is rated on an ordinal scale of 0 to 4 with lower scores indicating lower levels of symptoms or physical disability. […] There is also an index score or global score, which is most commonly calculated by summating the scores for the 3 subscales. The questionnaire is self administered and takes 5 to 10 minutes to complete. Data was presented as mean±SD or frequency and percent distribution whichever was applicable. Chi square test was performed to indicate any significant difference in the distribution of male and female patients between the two groups while t-test was performed to check for any significant difference in characteristics that were continuous variables. Paired sample t-test was used to compare the significance in change in values (WOMAC and medial knee joint space) of the two groups from baseline to the sixth month follow up.

[2] = test system: patients diagnosed with osteoarthritis of the knee; test: Filipino study: radiographic medial knee joint space width; assay type: in vivo, human; settings: weight-bearing anteroposterior radiograph
Protocol: Group A subjects were given the oral collagen supplement (Genacol®, Blainville, Qc, Canada) 400 mg/capsule, 3 capsules daily at bedtime for 6 months, and a topical analgesic needed for knee pain. Group B, the control group, received the standard treatment using an oral non-steroidal inflammatory drug, in the form of aceclofenac 100 mg/tablet, 1 tablet twice a day for 5 days initially then as needed for pain, and topical analgesic (ketoprofen gel) to be applied twice a day as needed for pain. Both groups underwent physical therapy three times a week for two weeks. Heating modalities, range of motion exercises, and muscle strengthening exercises were administered on each therapy session. Follow up evaluation was done every month. On the sixth month of follow up, repeat radiography evaluation of the involved knee was done to determine if there were any changes in the knee joint. Compliance to the study medication was determined by asking the patient on their missed doses and by counting the remaining unconsumed capsules. […] Using a standard ruler in millimeters, one experienced radiologist who was blinded as to the treatment of each subject measured the narrowest medial compartment of the tibiofemoral joint of each radiographed knee done at the start of the study. […]

What does the source list for O=C(O)COC(=O)Cc1ccccc1Nc1c(Cl)cccc1Cl [Group B, aceclofenac]?
WOMAC Score, mean ([1]; 2nd ff-up (monthly follow-up)): 2.42; WOMAC Score, mean ([1]; 3rd ff-up (monthly follow-up)): 2.29; WOMAC Score, mean ([1]; 4th ff-up (monthly follow-up)): 2.26; WOMAC Score, mean ([1]; 5th ff-up (monthly follow-up)): 2.17; WOMAC Score, mean ([1]; 6th ff-up (sixth month)): 1.87; WOMAC Score, mean ([1]; Baseline, Group A n=55, Group B n=58): 2.91; Median Knee Joint Space, mean ([2]; 6th ff-up (sixth month)): 3.8 mm; Median Knee Joint Space, mean ([2]; Baseline): 4.3 mm
